Results from ChEMBL document CHEMBL1201862, “PubChem BioAssay data set” (2004).
Values belong to the compound of their own block, whether it stands above or below them. The source made the active and inactive calls.

Columns and labels:
[1] = target: ATP-dependent molecular chaperone HSP82 (Candida albicans (strain WO-1) (Yeast), UniProt C4YTQ8); test: loss of DOC-induced GRE-beta-galactosidase reporter signal, dose response, Hsp90 inhibitor project, S. cerevisiae, luminescence (AID 2400); format: functional, cell-based;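 further: beta-galactosidase luminescence from glucocorticoid response element reporter as proxy for Hsp90 function; inhibitor potency where signal loss means Hsp90 inhibition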
Chain of ATP-dependent molecular chaperone HSP82 (C4YTQ8 whole entry): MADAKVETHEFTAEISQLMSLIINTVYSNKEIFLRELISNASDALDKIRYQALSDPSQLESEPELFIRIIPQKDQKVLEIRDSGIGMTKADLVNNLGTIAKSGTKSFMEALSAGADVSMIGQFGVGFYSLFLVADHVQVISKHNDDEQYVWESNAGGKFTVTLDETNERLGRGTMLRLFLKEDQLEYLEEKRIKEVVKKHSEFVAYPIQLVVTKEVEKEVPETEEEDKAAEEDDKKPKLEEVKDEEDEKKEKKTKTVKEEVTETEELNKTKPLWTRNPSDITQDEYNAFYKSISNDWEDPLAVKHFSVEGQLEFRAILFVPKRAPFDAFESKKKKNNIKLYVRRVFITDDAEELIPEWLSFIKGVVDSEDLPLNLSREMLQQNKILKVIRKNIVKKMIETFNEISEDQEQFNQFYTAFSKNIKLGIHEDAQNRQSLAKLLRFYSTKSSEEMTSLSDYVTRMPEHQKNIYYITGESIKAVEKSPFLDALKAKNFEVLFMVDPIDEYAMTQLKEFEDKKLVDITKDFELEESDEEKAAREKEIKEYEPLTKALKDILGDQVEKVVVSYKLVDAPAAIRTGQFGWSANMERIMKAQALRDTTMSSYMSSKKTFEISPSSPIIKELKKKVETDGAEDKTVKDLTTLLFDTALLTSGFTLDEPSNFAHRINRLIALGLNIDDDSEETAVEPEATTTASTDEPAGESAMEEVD

[2] = C. albicans growth with fluconazole, confirmation, fluorescence, retest (AID 2467); format: functional, cell-based
[3] = target: Homeodomain-interacting protein kinase 2 (Homo sapiens, UniProt Q9H2X6); format: functional;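 further: measured within a kinome-wide kinase profiling panel, HIPK2 being one panel member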
[4] = target: Tyrosine-protein kinase ITK/TSK (Homo sapiens, UniProt Q08881); format: functional;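 further: affinity for ITK measured as one member of a broad kinase panel profiling binding across the kinome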
[5] = target: Tyrosine-protein kinase HCK (Homo sapiens, UniProt P08631); test: Navigating the Kinome. Panel member name: HCK; format: functional
[6] = target: Tyrosine-protein kinase FRK (Homo sapiens, UniProt P42685); format: functional;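 further: FRK tested as one member of a kinome panel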
Aurora kinase A = target: T1, Aurora kinase A (Homo sapiens, UniProt O14965); format: functional;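 further: value from the Navigating the Kinome kinase panel profiling, panel entry STK6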
T1 sequence (O14965 whole entry): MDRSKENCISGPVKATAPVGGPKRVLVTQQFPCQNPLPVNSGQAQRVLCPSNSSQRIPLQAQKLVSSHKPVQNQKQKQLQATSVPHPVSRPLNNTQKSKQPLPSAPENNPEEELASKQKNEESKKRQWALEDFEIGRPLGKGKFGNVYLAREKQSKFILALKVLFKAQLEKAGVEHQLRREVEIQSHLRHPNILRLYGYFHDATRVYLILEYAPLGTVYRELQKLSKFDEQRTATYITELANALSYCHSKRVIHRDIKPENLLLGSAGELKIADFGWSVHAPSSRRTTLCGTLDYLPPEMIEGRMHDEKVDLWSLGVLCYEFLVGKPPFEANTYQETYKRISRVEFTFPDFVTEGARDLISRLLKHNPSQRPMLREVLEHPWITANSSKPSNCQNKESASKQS

[7] = target: 5'-AMP-activated protein kinase catalytic subunit alpha-1 (Homo sapiens, UniProt Q13131); format: functional
Chain of 5'-AMP-activated protein kinase catalytic subunit alpha-1 (Q13131 whole entry): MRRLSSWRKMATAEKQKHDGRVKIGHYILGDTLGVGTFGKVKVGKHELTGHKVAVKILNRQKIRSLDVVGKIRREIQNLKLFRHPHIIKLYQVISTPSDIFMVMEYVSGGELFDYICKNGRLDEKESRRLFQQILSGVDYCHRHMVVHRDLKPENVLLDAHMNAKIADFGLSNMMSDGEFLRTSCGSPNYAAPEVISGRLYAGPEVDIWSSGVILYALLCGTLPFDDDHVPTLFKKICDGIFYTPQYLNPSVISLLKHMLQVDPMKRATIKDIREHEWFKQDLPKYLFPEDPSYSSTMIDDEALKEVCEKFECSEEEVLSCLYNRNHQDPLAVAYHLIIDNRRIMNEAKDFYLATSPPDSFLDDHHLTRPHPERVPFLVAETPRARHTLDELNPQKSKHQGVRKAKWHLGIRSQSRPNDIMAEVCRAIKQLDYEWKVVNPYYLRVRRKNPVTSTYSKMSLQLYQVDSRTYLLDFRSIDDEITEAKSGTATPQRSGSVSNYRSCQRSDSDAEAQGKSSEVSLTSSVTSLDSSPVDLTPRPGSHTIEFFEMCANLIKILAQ

[8] = target: 3-phosphoinositide-dependent protein kinase 1 (Homo sapiens, UniProt O15530); format: functional;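 further: value comes from the Navigating the Kinome panel, PDPK1 member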
Chain of 3-phosphoinositide-dependent protein kinase 1 (O15530 whole entry): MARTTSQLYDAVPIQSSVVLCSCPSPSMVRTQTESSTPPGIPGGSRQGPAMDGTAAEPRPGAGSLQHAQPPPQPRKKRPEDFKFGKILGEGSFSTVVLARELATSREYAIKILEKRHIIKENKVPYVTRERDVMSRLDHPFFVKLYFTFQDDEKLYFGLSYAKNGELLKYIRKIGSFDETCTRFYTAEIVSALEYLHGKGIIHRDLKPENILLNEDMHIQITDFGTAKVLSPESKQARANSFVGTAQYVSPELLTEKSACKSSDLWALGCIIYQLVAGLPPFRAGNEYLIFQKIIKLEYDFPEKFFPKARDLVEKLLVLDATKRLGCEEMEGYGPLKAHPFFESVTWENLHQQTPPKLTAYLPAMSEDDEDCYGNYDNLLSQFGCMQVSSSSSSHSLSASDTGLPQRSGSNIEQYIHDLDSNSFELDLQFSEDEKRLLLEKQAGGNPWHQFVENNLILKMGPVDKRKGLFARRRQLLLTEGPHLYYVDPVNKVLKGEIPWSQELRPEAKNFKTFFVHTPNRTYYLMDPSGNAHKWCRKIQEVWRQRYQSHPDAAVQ

[9] = target: MAP kinase-activated protein kinase 5 (Homo sapiens, UniProt Q8IW41); format: functional;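 further: measured as one member of a kinome panel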
[10] = target: Serine/threonine-protein kinase Nek2 (Homo sapiens, UniProt P51955); format: functional
Chain of Serine/threonine-protein kinase Nek2 (P51955 whole entry): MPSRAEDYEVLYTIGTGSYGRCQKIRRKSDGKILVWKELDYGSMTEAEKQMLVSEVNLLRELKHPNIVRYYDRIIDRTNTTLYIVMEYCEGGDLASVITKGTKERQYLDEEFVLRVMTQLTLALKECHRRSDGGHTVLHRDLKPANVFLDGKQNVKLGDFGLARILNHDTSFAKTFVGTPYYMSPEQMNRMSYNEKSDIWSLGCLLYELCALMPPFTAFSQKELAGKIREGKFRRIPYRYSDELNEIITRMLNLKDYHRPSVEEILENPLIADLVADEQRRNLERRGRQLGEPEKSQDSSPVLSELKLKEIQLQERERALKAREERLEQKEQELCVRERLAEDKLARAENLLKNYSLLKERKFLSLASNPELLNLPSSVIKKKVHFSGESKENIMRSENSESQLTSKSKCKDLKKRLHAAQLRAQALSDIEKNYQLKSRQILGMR

[11] = target: Testis-specific serine/threonine-protein kinase 1 (Homo sapiens, UniProt Q9BXA7); format: functional
Chain of Testis-specific serine/threonine-protein kinase 1 (Q9BXA7 whole entry, canonical isoform): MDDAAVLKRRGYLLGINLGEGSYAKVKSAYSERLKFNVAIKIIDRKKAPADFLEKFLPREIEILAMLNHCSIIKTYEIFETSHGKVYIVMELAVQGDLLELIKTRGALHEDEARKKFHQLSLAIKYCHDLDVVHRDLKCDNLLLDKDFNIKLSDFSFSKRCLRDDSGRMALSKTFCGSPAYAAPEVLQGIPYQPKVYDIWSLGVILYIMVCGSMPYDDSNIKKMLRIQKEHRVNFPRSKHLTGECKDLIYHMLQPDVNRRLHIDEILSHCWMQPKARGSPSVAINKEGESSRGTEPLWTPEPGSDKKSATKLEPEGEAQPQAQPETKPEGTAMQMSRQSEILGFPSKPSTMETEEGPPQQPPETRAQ

[12] = target: Casein kinase I isoform delta (Homo sapiens, UniProt P48730); format: functional;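 further: measured as one member (CSNK1D) of a kinome panel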
[13] = target: Proto-oncogene tyrosine-protein kinase ROS (Homo sapiens, UniProt P08922); format: functional;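 further: ROS1 tested as one member of a kinome-wide kinase panel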
[14] = target: Serine/threonine-protein kinase PLK4 (Homo sapiens, UniProt O00444); format: functional;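 further: PLK4 measured as one member of a kinome-wide kinase profiling panel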
Chain of Serine/threonine-protein kinase PLK4 (O00444 whole entry): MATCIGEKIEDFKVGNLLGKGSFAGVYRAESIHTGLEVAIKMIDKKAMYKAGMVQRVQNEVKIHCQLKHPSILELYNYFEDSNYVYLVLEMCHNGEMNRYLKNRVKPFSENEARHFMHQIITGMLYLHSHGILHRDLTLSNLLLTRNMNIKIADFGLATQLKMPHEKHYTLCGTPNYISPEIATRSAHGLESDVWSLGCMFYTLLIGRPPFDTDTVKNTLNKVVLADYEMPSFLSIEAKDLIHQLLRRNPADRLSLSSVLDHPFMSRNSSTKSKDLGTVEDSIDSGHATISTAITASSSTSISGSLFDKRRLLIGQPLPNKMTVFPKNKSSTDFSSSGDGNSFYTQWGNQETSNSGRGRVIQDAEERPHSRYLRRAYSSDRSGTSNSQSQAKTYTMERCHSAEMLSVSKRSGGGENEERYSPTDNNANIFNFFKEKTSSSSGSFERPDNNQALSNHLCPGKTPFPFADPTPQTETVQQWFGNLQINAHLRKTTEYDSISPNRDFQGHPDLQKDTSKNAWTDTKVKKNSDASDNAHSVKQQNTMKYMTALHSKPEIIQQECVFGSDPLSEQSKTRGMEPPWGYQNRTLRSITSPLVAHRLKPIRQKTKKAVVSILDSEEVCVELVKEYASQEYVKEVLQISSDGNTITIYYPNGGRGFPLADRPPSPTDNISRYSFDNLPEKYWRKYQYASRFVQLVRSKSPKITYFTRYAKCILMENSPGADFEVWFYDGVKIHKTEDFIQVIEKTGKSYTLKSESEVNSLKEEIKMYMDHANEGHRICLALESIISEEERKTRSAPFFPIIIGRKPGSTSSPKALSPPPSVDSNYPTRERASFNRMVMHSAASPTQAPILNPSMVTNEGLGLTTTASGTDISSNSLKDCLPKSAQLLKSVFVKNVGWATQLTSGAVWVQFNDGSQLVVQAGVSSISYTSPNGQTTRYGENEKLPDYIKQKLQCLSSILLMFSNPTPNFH

[15] = target: Serine/threonine-protein kinase PLK3 (Homo sapiens, UniProt Q9H4B4); format: functional
[16] = target: High affinity nerve growth factor receptor (Homo sapiens, UniProt P04629); format: functional;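 further: NTRK1 tested as one member of a kinome-wide profiling panel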
[17] = target: Serine/threonine-protein kinase MRCK alpha (Homo sapiens, UniProt Q5VT25); format: functional
[18] = target: Protein kinase C theta type (Homo sapiens, UniProt Q04759); test: Navigating the Kinome. Panel member name: PRKCQ; format: functional
Chain of Protein kinase C theta type (Q04759 whole entry): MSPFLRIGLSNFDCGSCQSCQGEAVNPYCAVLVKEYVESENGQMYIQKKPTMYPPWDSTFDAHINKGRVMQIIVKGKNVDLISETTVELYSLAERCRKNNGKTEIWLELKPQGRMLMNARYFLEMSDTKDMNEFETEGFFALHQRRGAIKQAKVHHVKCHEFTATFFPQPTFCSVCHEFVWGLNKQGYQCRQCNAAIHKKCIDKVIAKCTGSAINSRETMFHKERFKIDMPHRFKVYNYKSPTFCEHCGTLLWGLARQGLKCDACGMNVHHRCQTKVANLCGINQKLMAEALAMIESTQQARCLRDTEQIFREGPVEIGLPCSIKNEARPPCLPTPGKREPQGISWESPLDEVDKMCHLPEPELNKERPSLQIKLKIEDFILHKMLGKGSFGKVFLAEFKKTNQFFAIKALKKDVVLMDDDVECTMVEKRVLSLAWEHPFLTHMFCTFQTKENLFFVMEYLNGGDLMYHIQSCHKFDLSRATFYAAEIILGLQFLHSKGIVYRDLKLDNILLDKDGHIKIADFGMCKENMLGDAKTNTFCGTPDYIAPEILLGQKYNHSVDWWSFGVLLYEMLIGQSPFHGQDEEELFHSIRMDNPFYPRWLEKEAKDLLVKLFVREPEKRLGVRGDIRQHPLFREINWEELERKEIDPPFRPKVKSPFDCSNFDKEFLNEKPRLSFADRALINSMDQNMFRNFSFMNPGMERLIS

[19] = target: Ribosomal protein S6 kinase alpha-5 (Homo sapiens, UniProt O75582); format: functional
[20] = target: G protein-coupled receptor kinase 5 (Homo sapiens, UniProt P34947); test: Navigating the Kinome. Panel member name: GPRK5; format: functional
Chain of G protein-coupled receptor kinase 5 (P34947 whole entry): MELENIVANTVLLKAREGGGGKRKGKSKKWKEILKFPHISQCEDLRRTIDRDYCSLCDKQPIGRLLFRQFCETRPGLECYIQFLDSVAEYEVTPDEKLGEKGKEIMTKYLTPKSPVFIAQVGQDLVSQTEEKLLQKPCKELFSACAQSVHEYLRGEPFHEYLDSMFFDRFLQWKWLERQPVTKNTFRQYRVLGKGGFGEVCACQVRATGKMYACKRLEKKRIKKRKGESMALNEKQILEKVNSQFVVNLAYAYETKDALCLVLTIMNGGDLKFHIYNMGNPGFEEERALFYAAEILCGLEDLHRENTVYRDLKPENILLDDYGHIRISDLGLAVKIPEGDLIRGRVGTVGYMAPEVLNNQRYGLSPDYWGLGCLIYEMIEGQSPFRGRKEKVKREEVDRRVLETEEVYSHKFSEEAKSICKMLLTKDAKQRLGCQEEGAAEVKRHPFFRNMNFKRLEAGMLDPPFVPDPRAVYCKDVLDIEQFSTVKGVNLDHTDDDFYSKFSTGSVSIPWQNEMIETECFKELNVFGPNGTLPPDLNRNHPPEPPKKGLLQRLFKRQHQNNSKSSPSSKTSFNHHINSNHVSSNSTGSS

[21] = target: Tyrosine-protein kinase Lck (Homo sapiens, UniProt P06239); format: functional;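 further: lck was assayed as one member of a kinase panel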
Activin receptor type-1 = Activin receptor type-1 (Homo sapiens, UniProt Q04771); test: Navigating the Kinome. Panel member name: ACVR1; format: functional

SMILES: CCCn1nc([N+](=O)[O-])c(C(C#N)c2nc3ccccc3s2)c(Cl)c1=O (stereo not drawn)
- EC50 [1]: 10.7 µM (active)
- EC50 [2]: 0.661 µM (active)

- Ki [3]: 0.631 µM (active)
- Ki [4]: > 1.58 µM (inactive)
- Ki [5]: > 3.16 µM (inactive)
- Ki [6]: > 2.51 µM (inactive)
- Ki (Aurora kinase A): > 1.58 µM (inactive)
- Ki [7]: 0.794 µM (active)
- Ki [8]: 0.00158 µM (active)
- Ki [9]: 0.2 µM (active)
- Ki [10]: > 10 µM (inactive)
- Ki [11]: 0.251 µM (active)
- Ki [12]: 0.126 µM (active)
- Ki [13]: 0.2 µM (active)
- Ki [14]: 0.0631 µM (active)
- Ki [15]: > 7.94 µM (inactive)
- Ki [16]: > 2.51 µM (inactive)
- Ki [17]: 0.631 µM (active)
- Ki [18]: > 2 µM (inactive)
- Ki [19]: 0.631 µM (active)
- Ki [20]: > 3.98 µM (inactive)
- Ki [21]: > 3.98 µM (inactive)
- Ki (Activin receptor type-1): > 3.16 µM (inactive)
SMILES: NCCCn1cc(-c2cc(-c3cc4ccccc4s3)c3[nH]ncc3c2)c2nc(N)ncc21
